# Experimental data published in PubChem BioAssay (NCI).
#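 Cultured in 96-well plates, cells were exposed to test compound for 48 hours across five concentrations. Here, GI50 denotes the concentration required for 50% inhibition of growth. TGI: total growth inhibition.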
# Assays:
# Assay in all cases: growth of human tumour cells (NCI), 48 h
# HOP-92 NSCLC = system: HOP-92 NSCLC
# SK-OV-3 ovarian = system: SK-OV-3 ovarian
# OVCAR-3 ovarian = system: OVCAR-3 ovarian
# MDA-MB-435 = system: MDA-MB-435
# DU-145 prostate = system: DU-145 prostate
# SR leukemia = system: SR leukemia
# MDA-MB-231 breast = system: MDA-MB-231 breast
# CAKI-1 renal = system: CAKI-1 renal
# SNB-75 CNS = system: SNB-75 CNS
# OVCAR-5 ovarian = system: OVCAR-5 ovarian
# UO-31 renal = system: UO-31 renal
# PC-3 prostate = system: PC-3 prostate
# HCC-2998 colon = system: HCC-2998 colon
# SN12C renal = system: SN12C renal
# HT29 colon = system: HT29 colon
# TK-10 renal = system: TK-10 renal
# HOP-62 NSCLC = system: HOP-62 NSCLC
# SNB-19 CNS = system: SNB-19 CNS
# MALME-3M melanoma = system: MALME-3M melanoma
# OVCAR-8 ovarian = system: OVCAR-8 ovarian
# HL-60(TB) leukemia = system: HL-60(TB) leukemia
# UACC-257 melanoma = system: UACC-257 melanoma
# ACHN renal = system: ACHN renal
# K-562 leukemia = system: K-562 leukemia
# A549 NSCLC = system: A549 NSCLC
# KM12 colon = system: KM12 colon
# CCRF-CEM leukemia = system: CCRF-CEM leukemia
# U251 CNS = system: U251 CNS
# NCI/ADR-RES ovarian = system: NCI/ADR-RES ovarian
# SF-295 CNS = system: SF-295 CNS
# SF-268 CNS = system: SF-268 CNS
# SK-MEL-28 melanoma = system: SK-MEL-28 melanoma
# HCT-15 colon = system: HCT-15 colon
# SK-MEL-2 melanoma = system: SK-MEL-2 melanoma
# COLO 205 colon = system: COLO 205 colon
# MOLT-4 leukemia = system: MOLT-4 leukemia
# IGROV1 ovarian = system: IGROV1 ovarian
# LOX IMVI melanoma = system: LOX IMVI melanoma
# M14 melanoma = system: M14 melanoma
# NCI-H522 lung = system: NCI-H522 lung
# SF-539 CNS = system: SF-539 CNS
# NCI-H23 lung = system: NCI-H23 lung
# HCT-116 colon = system: HCT-116 colon
# EKVX NSCLC = system: EKVX NSCLC
# RPMI-8226 leukemia = system: RPMI-8226 leukemia
# 786-0 renal = system: 786-0 renal
# UACC-62 melanoma = system: UACC-62 melanoma
# T-47D breast = system: T-47D breast
smiles,measurement,setting,value
N=C(N)c1ccc(-c2ccc(-c3ccc(Cl)cc3Cl)o2)nc1,GI50,HOP-92 NSCLC,1.44 µM
same,TGI,HOP-92 NSCLC,2.9 µM
same,GI50,SK-OV-3 ovarian,1.77 µM
same,TGI,SK-OV-3 ovarian,3.52 µM
same,GI50,OVCAR-3 ovarian,1.81 µM
same,TGI,OVCAR-3 ovarian,3.23 µM
same,GI50,MDA-MB-435,1.72 µM
same,TGI,MDA-MB-435,3.1 µM
same,GI50,DU-145 prostate,1.78 µM
same,TGI,DU-145 prostate,3.21 µM
same,GI50,SR leukemia,0.311 µM
same,TGI,SR leukemia,1.43 µM
same,GI50,MDA-MB-231 breast,1.64 µM
same,TGI,MDA-MB-231 breast,3.16 µM
same,GI50,CAKI-1 renal,1.52 µM
same,TGI,CAKI-1 renal,2.96 µM
same,GI50,SNB-75 CNS,1.46 µM
same,TGI,SNB-75 CNS,2.78 µM
same,GI50,OVCAR-5 ovarian,1.64 µM
same,TGI,OVCAR-5 ovarian,3.05 µM
same,GI50,UO-31 renal,1.56 µM
same,TGI,UO-31 renal,2.92 µM
OC(c1cc(-c2cccc(Cl)c2)nc2ccccc12)C1CCCCN1 (stereo not drawn),GI50,PC-3 prostate,1.4 µM
same,TGI,PC-3 prostate,2.84 µM
same,GI50,HCC-2998 colon,2.09 µM
same,TGI,HCC-2998 colon,4.15 µM
same,GI50,HOP-92 NSCLC,1.12 µM
same,TGI,HOP-92 NSCLC,2.51 µM
same,GI50,SN12C renal,2.17 µM
same,TGI,SN12C renal,5.19 µM
same,GI50,HT29 colon,1.7 µM
same,TGI,HT29 colon,3.42 µM
same,GI50,SK-OV-3 ovarian,3.54 µM
same,TGI,SK-OV-3 ovarian,12.2 µM
same,GI50,TK-10 renal,2.12 µM
same,TGI,TK-10 renal,4.48 µM
same,GI50,HOP-62 NSCLC,1.78 µM
same,TGI,HOP-62 NSCLC,3.32 µM
same,GI50,SNB-19 CNS,1.95 µM
same,TGI,SNB-19 CNS,3.95 µM
same,GI50,OVCAR-3 ovarian,1.81 µM
same,TGI,OVCAR-3 ovarian,3.21 µM
same,GI50,MALME-3M melanoma,2.05 µM
same,TGI,MALME-3M melanoma,3.77 µM
same,GI50,OVCAR-8 ovarian,1.79 µM
same,TGI,OVCAR-8 ovarian,3.42 µM
same,GI50,HL-60(TB) leukemia,1.72 µM
same,TGI,HL-60(TB) leukemia,4.22 µM
same,GI50,UACC-257 melanoma,1.85 µM
same,TGI,UACC-257 melanoma,3.33 µM
same,GI50,ACHN renal,1.64 µM
same,TGI,ACHN renal,3.13 µM
same,GI50,MDA-MB-435,1.63 µM
same,TGI,MDA-MB-435,3.15 µM
same,GI50,K-562 leukemia,1.39 µM
same,TGI,K-562 leukemia,4.46 µM
same,GI50,A549 NSCLC,1.7 µM
same,TGI,A549 NSCLC,3.1 µM
same,GI50,KM12 colon,1.79 µM
same,TGI,KM12 colon,3.2 µM
same,GI50,CCRF-CEM leukemia,2.08 µM
same,TGI,CCRF-CEM leukemia,4.74 µM
same,GI50,U251 CNS,1.66 µM
same,TGI,U251 CNS,3.05 µM
same,GI50,NCI/ADR-RES ovarian,1.99 µM
same,TGI,NCI/ADR-RES ovarian,4.02 µM
same,GI50,SF-295 CNS,1.59 µM
same,TGI,SF-295 CNS,3.22 µM
same,GI50,SF-268 CNS,1.57 µM
same,TGI,SF-268 CNS,2.97 µM
same,GI50,SK-MEL-28 melanoma,1.81 µM
same,TGI,SK-MEL-28 melanoma,3.42 µM
same,GI50,DU-145 prostate,1.76 µM
same,TGI,DU-145 prostate,3.15 µM
same,GI50,HCT-15 colon,1.91 µM
same,TGI,HCT-15 colon,3.91 µM
same,GI50,SR leukemia,1.27 µM
same,TGI,SR leukemia,3.8 µM
same,GI50,SK-MEL-2 melanoma,2.18 µM
same,TGI,SK-MEL-2 melanoma,4.02 µM
same,GI50,COLO 205 colon,1.98 µM
same,TGI,COLO 205 colon,3.7 µM
same,GI50,MDA-MB-231 breast,1.66 µM
same,TGI,MDA-MB-231 breast,3.37 µM
same,GI50,MOLT-4 leukemia,1.6 µM
same,TGI,MOLT-4 leukemia,4.14 µM
same,GI50,IGROV1 ovarian,1.69 µM
same,TGI,IGROV1 ovarian,3.21 µM
same,GI50,LOX IMVI melanoma,1.76 µM
same,TGI,LOX IMVI melanoma,3.36 µM
same,GI50,M14 melanoma,1.91 µM
same,TGI,M14 melanoma,3.74 µM
same,GI50,NCI-H522 lung,1.97 µM
same,TGI,NCI-H522 lung,3.66 µM
same,GI50,SF-539 CNS,1.93 µM
same,TGI,SF-539 CNS,3.61 µM
same,GI50,CAKI-1 renal,1.24 µM
same,TGI,CAKI-1 renal,2.72 µM
same,GI50,NCI-H23 lung,2.01 µM
same,TGI,NCI-H23 lung,4.2 µM
same,GI50,HCT-116 colon,1.75 µM
same,TGI,HCT-116 colon,3.38 µM
same,GI50,EKVX NSCLC,1.45 µM
same,TGI,EKVX NSCLC,2.94 µM
same,GI50,RPMI-8226 leukemia,2.68 µM
same,TGI,RPMI-8226 leukemia,6.45 µM
same,GI50,SNB-75 CNS,1.38 µM
same,TGI,SNB-75 CNS,3.23 µM
same,GI50,786-0 renal,1.84 µM
same,TGI,786-0 renal,3.47 µM
same,GI50,OVCAR-5 ovarian,1.62 µM
same,TGI,OVCAR-5 ovarian,3.29 µM
same,GI50,UACC-62 melanoma,1.93 µM
same,TGI,UACC-62 melanoma,3.58 µM
same,GI50,UO-31 renal,1.36 µM
same,TGI,UO-31 renal,2.74 µM
same,GI50,T-47D breast,2.09 µM
same,TGI,T-47D breast,3.93 µM
